Values after ≈ are worked out from the molar mass of the structure shown. Like-named read-outs stand apart in the source and are kept apart here.

These results are taken from patent US12258338B2, “Modulators of the integrated stress response pathway” (EVOTEC INTERNATIONAL GMBH, priority 2019, dated 2025).

One series concerns ATF4. The series can be described thus: HEK-ATF4 High Content Imaging assay (prevention of Tunicamycin induced ISR; ATF4 signal ratio between nucleus and cytoplasm). Conditions: Homo sapiens; Wild-type HEK293 cells, Tunicamycin induced ISR, 6 h; read-out: IIEK-ATF4 Activity. Type of series: cell-based. The method in brief:
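Wild-type HEK293 cells in 0.3% FBS medium were co-treated with compounds and Tunicamycin (3.3 μM in prediluted medium, 11-fold over final) for 6 h at 37 °C. Fixed cells were immunostained for ATF4 with Hoechst nuclei; imaging gave nuclear/cytoplasmic ATF4 ratio, with nuclei counts as toxicity control.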

The nature of series [1]: Thermodynamic (Equilibrium) solubility in selected buffer. Conditions: Table 25; for solubility: aqueous buffer, thermodynamic from solid. Type of series: physicochemical. As to the method: Protocol—Thermodynamic (Equilibrium) Solubility in Selected Buffer
Example compounds were tested in the Thermodynamic (Equilibrium) solubility in selected buffer assay. The test compound, in powder form, was weighted into a 4 mL glass vial and a calculated volume of selected medium was added to reach the target concentration of the solubility test (1 mg/mL). The solution was then stirred overnight at r.t. protected from the light. The solution was filtered through a 0.45 μm PTFE membrane at ambient temperature. An aliquot of the resulting filtrate was quantified using UPLC-UV method described below against a reference solution of the test compound, 0.8 mg/mL in DMSO. Media compositions: Phosphate buffer 50 mM (pH=2.0) […] of NaH2PO4, H2O in 200 mL of ultrapurified water adjusted at pH 2 with phosphoric acid 85%; Acetate buffer 50 mM (pH=5.5) 820 mg of anhydrous sodium acetate in 200 mL of ultrapurified water adjusted at pH 5.5 with acetic acid 99.8%; Phosphate buffer 50 mM (pH=7.4) 40.5 mL of Na2HPO4 0.1 M solution+9.5 mL of NaH2PO4 0.1 M solution. Analytical conditions: UPLC-UV-MS analyses were performed with a Waters Acquity UPLC HClass-PDA-QDa system using a reverse phase Acquity BEH C18 column (2.1 mm×50 mm, 1.7 μm; temperature: 40° C.) and a gradient of 10-95% B (A=0.1% formic acid in H2O; B=0.05% formic acid in ACN) over 1.8 min then 100% B for 0.8 min, with an injection volume of 0.4 μL at flow rate of 0.65 mL/min. UV chromatograms were recorded at 220 nm, 254 nm and 290 nm using a photo diode array detector. Mass spectra were recorded in the 150 to 900 M/Z range at a sampling rate of 10 scans per sec using a QDa detector. Data were integrated using Empower®3 software. Data Analysis: Equilibrium solubility of the test compound in the selected medium was calculated through the ratio of the surface area of the UV chromatographic peak of the compound in the filtrate to the surface of the UV chromatographic peak of the compound in the reference solution.

Series [2] deals with T1, human ERG potassium channel (hERG) (Homo sapiens, UniProt Q12809).
T1 construct: expressed in transfected cells; host or cells: HEK293, stably transfected, tetracycline-inducible promoter
T1 sequence (Q12809 whole entry): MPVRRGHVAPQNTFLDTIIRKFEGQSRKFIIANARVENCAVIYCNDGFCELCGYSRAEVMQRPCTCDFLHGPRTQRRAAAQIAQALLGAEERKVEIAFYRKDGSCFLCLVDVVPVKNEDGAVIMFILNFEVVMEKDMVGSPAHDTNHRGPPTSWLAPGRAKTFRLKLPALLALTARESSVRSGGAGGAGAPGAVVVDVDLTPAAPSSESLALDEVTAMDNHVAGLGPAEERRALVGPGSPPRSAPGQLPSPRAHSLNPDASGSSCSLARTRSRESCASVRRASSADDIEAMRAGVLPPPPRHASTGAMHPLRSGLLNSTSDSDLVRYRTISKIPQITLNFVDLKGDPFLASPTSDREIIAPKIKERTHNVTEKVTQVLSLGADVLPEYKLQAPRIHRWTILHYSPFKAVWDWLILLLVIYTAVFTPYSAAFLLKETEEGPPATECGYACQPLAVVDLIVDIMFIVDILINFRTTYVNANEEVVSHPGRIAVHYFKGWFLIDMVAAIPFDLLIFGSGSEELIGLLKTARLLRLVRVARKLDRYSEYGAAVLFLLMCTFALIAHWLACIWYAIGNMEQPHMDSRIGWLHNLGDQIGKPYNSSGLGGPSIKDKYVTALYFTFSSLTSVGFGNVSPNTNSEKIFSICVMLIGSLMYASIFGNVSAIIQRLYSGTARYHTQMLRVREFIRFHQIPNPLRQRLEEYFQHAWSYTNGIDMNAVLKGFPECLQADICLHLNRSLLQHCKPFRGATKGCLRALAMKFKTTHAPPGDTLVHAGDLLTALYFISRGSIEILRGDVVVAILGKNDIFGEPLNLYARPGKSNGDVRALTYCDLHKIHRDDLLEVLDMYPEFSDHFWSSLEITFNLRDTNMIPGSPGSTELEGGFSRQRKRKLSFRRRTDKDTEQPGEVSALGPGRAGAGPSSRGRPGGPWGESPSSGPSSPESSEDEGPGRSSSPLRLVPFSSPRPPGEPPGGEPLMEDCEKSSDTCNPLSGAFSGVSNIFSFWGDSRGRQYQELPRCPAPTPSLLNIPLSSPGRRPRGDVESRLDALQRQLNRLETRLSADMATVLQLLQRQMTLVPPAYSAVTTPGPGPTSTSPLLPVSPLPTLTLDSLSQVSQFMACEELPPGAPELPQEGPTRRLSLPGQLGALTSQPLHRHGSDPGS
The series is described as follows: hERG channel tail current recording using in vitro Rapid ICE (automated patch-clamp, QPatch HTX). Type of series: cell-based. Conditions: Table 26. Put shortly: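 Automated patch clamp on tetracycline-induced HEK293 hERG cells; pulse −80 to −50 mV 200 ms, +20 mV 4.8 s, −50 mV 5 s tail, extracellular pH 7.4. Compound at 0.3, 3, 30 μM (0.3% DMSO), 5 min exposure; tail current versus vehicle gives % inhibition and estimated IC50.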

[3] abbreviates: acetate buffer 50 mM, pH 5.5, read-out: Solubility (μg/mL) pH 5.5.
The mark [4] stands for this setting: phosphate buffer 50 mM, pH 2.0, read-out: Solubility (μg/mL) pH 2.0.
Setting [5] is: phosphate buffer 50 mM, pH 7.4, read-out: Solubility (μg/mL) pH 7.4.

As for `O=C(COc1ccc(Cl)c(F)c1)N[C@H]1CC[C@H](c2nnc(N3CC(OC4CC4)C3)o2)NC1` [Example 95, 2-(4-chloro-3-fluorophenoxy)-N-[(3S,6R)-6-[5-(3-cyclopropoxyazetidin-1-yl)-1,3,4-oxadiazol-2-yl]piperidin-3-yl]acetamide], the IC50 with ATF4 lay within 1 to 500 nM; in series [2], 1000 to 5000 nM. Moreover, the figures for the solubility in series [1] (setting [3]), in series [1] (setting [4]) and in series [1] (setting [5]) were 378 µg/mL (≈ 811 µM), 970 µg/mL (≈ 2080 µM) and 230 µg/mL (≈ 494 µM), respectively.

As to `O=C(COc1ccc(Cl)c(C(F)F)c1)N[C@H]1CC[C@H](c2nnc(OCCOC(F)(F)F)o2)NC1` [Example 11, 2-[4-chloro-3-(difluoromethyl)phenoxy]-N-[(3S,6R)-6-{5-[2-(trifluoromethoxy)ethoxy]-1,3,4-oxadiazol-2-yl}piperidin-3-yl]acetamide], the values for the IC50 (in the series on ATF4; in series [2]) were 1 to 500 nM and more than 5000 nM, respectively. Besides, the solubility in series [1] (setting [3]) came to 60 µg/mL (≈ 117 µM); in series [1] (setting [4]) it was 617 µg/mL (≈ 1200 µM); in series [1] (setting [5]), 42 µg/mL (≈ 81.6 µM).

`O=C(COc1ccc(Cl)c(F)c1)N[C@H]1CC[C@H](c2noc([C@H]3C[C@@H](OC(F)(F)F)C3)n2)NC1` [Example 98, 2-(4-chloro-3-fluorophenoxy)-N-[(3S,6R)-6-{5-[(1s,3s)-3-(trifluoromethoxy)cyclobutyl]-1,2,4-oxadiazol-3-yl}piperidin-3-yl]acetamide]: the IC50 in the series on ATF4 was in the range of 1 to 500 nM; in series [2] it was 1000 to 5000 nM. In addition, the figures for the solubility in series [1] (setting [3]) and in series [1] (setting [5]) were 61 µg/mL (≈ 124 µM) and 17 µg/mL (≈ 34.5 µM), respectively. Also, in series [1] (pH 2.0), the “Solubility (μg/mL) pH 2.0” value was “quant.^#”.

On to `O=C(COc1ccc(Cl)c(F)c1)N[C@H]1CC[C@H](c2nnc(N3CC(C(F)(F)F)C3)o2)NC1` [Example 90, 2-(4-chloro-3-fluorophenoxy)-N-[(3S,6R)-6-{5-[3-(trifluoromethyl)azetidin-1-yl]-1,3,4-oxadiazol-2-yl}piperidin-3-yl]acetamide], for which the values for the IC50 (in the series with ATF4; in series [2]) were 500 to 2000 nM and more than 5000 nM, respectively. For the same compound, the solubility in series [1] (setting [3]) was 294 µg/mL (≈ 615 µM); in series [1] (setting [5]) it was 173 µg/mL (≈ 362 µM). In addition, in series [1] (pH 2.0), the “Solubility (μg/mL) pH 2.0” value is “quant.^#”.

As for `O=C(COc1ccc(Cl)c(F)c1)N[C@H]1CC[C@H](c2nnc(-c3ccc(C(F)(F)F)nc3)o2)NC1` [Example 52, 2-(4-chloro-3-fluorophenoxy)-N-[(3S,6R)-6-{5-[6-(trifluoromethyl)pyridin-3-yl]-1,3,4-oxadiazol-2-yl}piperidin-3-yl]acetamide], the IC50 in the series on ATF4 is 1 to 500 nM; in series [2] it was 1 to 1000 nM. Besides, the solubility in series [1] (setting [3]) amounted to 9 µg/mL (≈ 18 µM); in series [1] (setting [4]), 839 µg/mL (≈ 1680 µM); in series [1] (setting [5]), 7 µg/mL (≈ 14 µM).

Turning to `O=C(COc1ccc(Cl)c(F)c1)N[C@H]1CC[C@H](c2nnc(OCCOC(F)F)o2)NC1` [Example 75, 2-(4-chloro-3-fluorophenoxy)-N-[(3S,6R)-6-{5-[2-(difluoromethoxy)ethoxy]-1,3,4-oxadiazol-2-yl}piperidin-3-yl]acetamide], the figures for the IC50 (in the series with ATF4; in series [2]) were 1 to 500 nM and 1000 to 5000 nM, respectively. Further, the solubility came to 26 µg/mL (≈ 55.9 µM) in series [1] (setting [3]), 713 µg/mL (≈ 1530 µM) in series [1] (setting [4]) and 22 µg/mL (≈ 47.3 µM) in series [1] (setting [5]).

`O=C(COc1ccc(Cl)c(Cl)c1)N[C@H]1CC[C@H](c2nnc([C@H]3C[C@@H](OC(F)F)C3)o2)NC1` [Example 60, 2-(3,4-dichlorophenoxy)-N-[(3S,6R)-6-(5-[(1s,3s)-3-(difluoromethoxy)cyclobutyl]-1,3,4-oxadiazol-2-yl}piperidin-3-yl]acetamide]: the IC50 in the series with ATF4 fell in the range of 1 to 500 nM; in series [2], 1 to 1000 nM. Also, the solubility was found to be 47 µg/mL (≈ 95.7 µM) in series [1] (setting [3]), 886 µg/mL (≈ 1800 µM) in series [1] (setting [4]) and 91 µg/mL (≈ 185 µM) in series [1] (setting [5]).

As to `O=C(COc1ccc(C(F)(F)F)nc1)N[C@H]1CC[C@H](c2nnc(OCCOC(F)(F)F)o2)NC1` [Example 14, N-[(3S,6R)-6-{5-[2-(trifluoromethoxy)ethoxy]-1,3,4-oxadiazol-2-yl}piperidin-3-yl]-2-{[6-(trifluoromethyl)pyridin-3-yl]oxy}acetamide], the IC50 in the series on ATF4 was 500 to 2000 nM; in series [2], more than 5000 nM. The solubility in series [1] (setting [3]) was 814 µg/mL (≈ 1630 µM); in series [1] (setting [4]), 616 µg/mL (≈ 1230 µM); in series [1] (setting [5]), 606 µg/mL (≈ 1210 µM).

As for `Cc1cc(OCC(=O)N[C@H]2CC[C@H](c3nnc(OCCOC(F)(F)F)o3)NC2)ccc1Cl` [Example 12, 2-(4-chloro-3-methylphenoxy)-N-[(3S,6R)-6-{5-[2-(trifluoromethoxy)ethoxy]-1,3,4-oxadiazol-2-yl}piperidin-3-yl]acetamide], the IC50 with ATF4 is 1 to 500 nM; in series [2], more than 5000 nM. The solubility came out at 113 µg/mL (≈ 236 µM) in series [1] (setting [3]), 651 µg/mL (≈ 1360 µM) in series [1] (setting [4]) and 105 µg/mL (≈ 219 µM) in series [1] (setting [5]).

For `O=C(COc1ccc(Cl)c(F)c1)N[C@H]1CC[C@H](c2nnc(C3CN(CC(F)(F)F)C3)o2)NC1` [Example 57, 2-(4-chloro-3-fluorophenoxy)-N-[(3S,6R)-6-{5-[1-(2,2,2-trifluoroethyl)azetidin-3-yl]-1,3,4-oxadiazol-2-yl}piperidin-3-yl]acetamide], the IC50 was 500 to 2000 nM in the series on ATF4 and more than 5000 nM in series [2]. In addition, the solubility in series [1] (setting [3]) came out at 663 µg/mL (≈ 1350 µM); in series [1] (setting [5]) it was 501 µg/mL (≈ 1020 µM). The “Solubility (μg/mL) pH 2.0” value in series [1] (pH 2.0) is given as “quant.^#”.

With `O=C(COc1ccc(Cl)c(F)c1)N[C@H]1CC[C@H](c2nnc(OCCOC(F)(F)F)o2)NC1` [Example 77, 2-(4-chloro-3-fluorophenoxy)-N-[(3S,6R)-6-{5-[2-(trifluoromethoxy)ethoxy]-1,3,4-oxadiazol-2-yl}piperidin-3-yl]acetamide], the IC50 with ATF4 lay within 1 to 500 nM; in series [2] it was 1000 to 5000 nM. Moreover, the values for the solubility in series [1] (setting [3]), in series [1] (setting [4]) and in series [1] (setting [5]) were 98 µg/mL (≈ 203 µM), 810 µg/mL (≈ 1680 µM) and 76 µg/mL (≈ 157 µM), respectively.

Take `O=C(COc1ccc(Cl)c(F)c1)N[C@H]1CC[C@H](c2nnc(OC3CCC(F)(F)C3)o2)NC1` (stereo partly drawn) [Example 68, 2-(4-chloro-3-fluorophenoxy)-N-[(3S,6R)-6-{5-[(3,3-difluorocyclopentyl)oxy]-1,3,4-oxadiazol-2-yl}piperidin-3-yl]acetamide]: the IC50 in the series on ATF4 lay in the range of 2000 to 15000 nM; in series [2] it was 1000 to 5000 nM. Further, the solubility is 168 µg/mL (≈ 354 µM) in series [1] (setting [3]), 909 µg/mL (≈ 1910 µM) in series [1] (setting [4]) and 102 µg/mL (≈ 215 µM) in series [1] (setting [5]).

Turning to `O=C(COc1ccc(Cl)c(Cl)c1)N[C@H]1CC[C@H](c2nnc(OCCOC(F)(F)F)o2)NC1` [Example 85, 2-(3,4-dichlorophenoxy)-N-[(3S,6R)-6-{5-[2-(trifluoromethoxy)ethoxy]-1,3,4-oxadiazol-2-yl}piperidin-3-yl]acetamide], the IC50 was 1 to 500 nM in the series with ATF4 and 1000 to 5000 nM in series [2]. For the same compound, the values for the solubility in series [1] (setting [3]), in series [1] (setting [4]) and in series [1] (setting [5]) were 9 µg/mL (≈ 18 µM), 918 µg/mL (≈ 1840 µM) and 6 µg/mL (≈ 12 µM), respectively.

Turning to `O=C(COc1ccc(Cl)c(F)c1)N[C@H]1CC[C@H](c2nnc(N3CC[C@@H](OC(F)(F)F)C3)o2)NC1` (single isomer, unassigned) [Example 111], the results for the IC50 (in the series with ATF4; in series [2]) were 1 to 500 nM and 1000 to 5000 nM, respectively. Moreover, the solubility in series [1] (setting [3]) stood at 9 µg/mL (≈ 17.7 µM); in series [1] (setting [4]) it was 911 µg/mL (≈ 1790 µM); in series [1] (setting [5]), 6 µg/mL (≈ 11.8 µM).

On to `O=C(COc1ccc(C(F)(F)F)cc1)N[C@H]1CC[C@H](c2nnc(OCCOC(F)(F)F)o2)NC1` [Example 112, N-[(3S,6R)-6-{5-[2-(trifluoromethoxy)ethoxy]-1,3,4-oxadiazol-2-yl}piperidin-3-yl]-2-[4-(trifluoromethyl)phenoxy]acetamide], for which the results for the IC50 (with ATF4; in series [2]) were 1 to 500 nM and more than 5000 nM, respectively. Also, the figures for the solubility in series [1] (setting [3]), in series [1] (setting [4]) and in series [1] (setting [5]) were 97 µg/mL (≈ 195 µM), 812 µg/mL (≈ 1630 µM) and 67 µg/mL (≈ 134 µM), respectively.

For the compound `O=C(COc1ccc(Cl)c(F)c1)N[C@H]1CC[C@H](c2nnc(N3CC[C@H](OC(F)(F)F)C3)o2)NC1` (single isomer, unassigned) [Example 110], the IC50 is 1 to 500 nM in the series on ATF4 and more than 5000 nM in series [2]. Also, the solubility in series [1] (setting [3]) was determined as 256 µg/mL (≈ 504 µM); in series [1] (setting [4]), 982 µg/mL (≈ 1930 µM); in series [1] (setting [5]), 132 µg/mL (≈ 260 µM).
